Key:
HL60 (leukemia) = experiment: In vitro cytotoxic activity MTT assay, HL60; type: cell-based; settings: Homo sapiens, HL-60, cells exposed for 96 hours, read-out: Cytotoxicity activity IC50 (50% inhibition of cell proliferation)
Description: (§1) Compounds 1-16 were screened for their in vitro cytotoxic activity utilizing a 3-(4,5-dimethyl-thiazol-2-yl)-2,5-diphenyltetrazolium bromide (MTT) assay against selected cancer human cell lines consisting of PC3 (prostate), HCT116 (colon), A375 (melanoma), H1299 (lung), MIAPaCa-2 (pancreas), HL60 (leukemia), MCF7 (breast), MDA-MB-231 (breast) (T. Mosmann, J. Immunol. Meth., 1983, 65, 55-63). The cells were cultured at 37° C. in RMPI1640 medium supplemented with 10% fetal bovine serum, 50 IU/mL penicillin, and 50 μg/mL streptomycin in a 5% CO2 incubator. All cells were sub-cultured 3 times/week by trypsinisation. Viable cells were seeded and allowed to adhere for 12 hours before a test drug was added in 96-well plates at an initial density of 1.0×10^5 cells/mL. Tumor cell lines were separately exposed to various concentrations of the tested compounds followed by incubation at a temperature of 37° C. during 96 hours inside a medium of fresh RMPI 1640. Cells were subsequently incubated at 37° C. using MTT at 0.5 mg/mL during 4 hours. After removal of supernatant, formazan crystals were dissolved in isopropanol and the optical density was measured at 570 nm. CX-4945 was used as a positive control.

A375 (melanoma) = experiment: In vitro cytotoxic activity MTT assay, A375; type: cell-based; settings: Homo sapiens, A-375, cells exposed for 96 hours, read-out: Cytotoxicity activity IC50 (50% inhibition of cell proliferation)
Description: as §1

MCF7 (breast) = experiment: In vitro cytotoxic activity MTT assay, MCF7; type: cell-based; settings: Homo sapiens, cells exposed for 96 hours, read-out: Cytotoxicity activity IC50 (50% inhibition of cell proliferation)
Description: as §1

PC3 (prostate) = experiment: In vitro cytotoxic activity MTT assay, PC3; type: cell-based; settings: Homo sapiens, Prostate cell, cells exposed for 96 hours, read-out: Cytotoxicity activity IC50 (50% inhibition of cell proliferation)
Description: as §1

MDA-MB-231 (breast) = experiment: In vitro cytotoxic activity MTT assay, MDA-MB-231; type: cell-based; settings: Homo sapiens, cells exposed for 96 hours, read-out: Cytotoxicity activity IC50 (50% inhibition of cell proliferation)
Description: as §1

H1299 (lung) = experiment: In vitro cytotoxic activity MTT assay, H1299; type: cell-based; settings: Homo sapiens, NCI-H1299, cells exposed for 96 hours, read-out: Cytotoxicity activity IC50 (50% inhibition of cell proliferation)
Description: as §1

[1] = target: T1, recombinant human CK2 (RRBB-holoenzyme) (Homo sapiens, UniProt P68400); experiment: CK2 Kinase Assay (33P-ATP, filter plate); type: biochemical; settings: recombinant human CK2, final ATP concentration 15 μM, 10 min at 30° C.; read-out: protein kinase CK2 inhibition IC50
T1 construct: purchased Millipore
Description: CK2 Kinase Assay was conducted using the protocol as described in Pierre F. et al; J. Med. Chem. 2011, 54, 635-654. The tested compounds in aqueous solution were added at a volume of 10 μL to a reaction mixture comprising 10 μL of assay dilution buffer (ADB; 20 mM MOPS, pH 7.2, 25 mM B-glycerol phosphate, 5 mM EGTA, 1 mM sodium orthovanadate, and 1 mM dithiothreitol), 10 μL of substrate peptide (RRRDDDSDDD, dissolved in ADB at a concentration of 1 mM), 10 μL of recombinant human CK2 (RRBB-holoenzyme, 25 ng dissolved in ADB; Millipore). Reactions were initiated by the addition of 10 μL of ATP solution (90% 75 mMMgCl2, 75 μM ATP (final ATP concentration: 15 μM) dissolved in ADB; 10% [γ-33P] ATP (stock 1mCi/100 μL; 3000 Ci/mmol (Perkin-Elmer) and maintained for 10 min at 30° C. The reactions were quenched with 100 μL of 0.75% phosphoric acid and then transferred to and filtered through a phosphor cellulose filter plate (Millipore). After washing each well five times with 0.75% phosphoric acid, the plate was dried under vacuum for 5 min and, following the addition of 15 μL of scintillation fluid to each well, the residual radioactivity was measured using a Wallac luminescence counter. The IC50 values were derived from eight concentrations of test inhibitors.

MIAPaCa-2 (pancreas) = experiment: In vitro cytotoxic activity MTT assay, MIAPaCa-2; type: cell-based; settings: Homo sapiens, MIA PaCa-2, cells exposed for 96 hours, read-out: Cytotoxicity activity IC50 (50% inhibition of cell proliferation)
Description: as §1

HCT116 (colon) = experiment: In vitro cytotoxic activity MTT assay, HCT116; type: cell-based; settings: Homo sapiens, HCT-116, cells exposed for 96 hours, read-out: Cytotoxicity activity IC50 (50% inhibition of cell proliferation)
Description: as §1

T1 sequence (P68400 whole entry): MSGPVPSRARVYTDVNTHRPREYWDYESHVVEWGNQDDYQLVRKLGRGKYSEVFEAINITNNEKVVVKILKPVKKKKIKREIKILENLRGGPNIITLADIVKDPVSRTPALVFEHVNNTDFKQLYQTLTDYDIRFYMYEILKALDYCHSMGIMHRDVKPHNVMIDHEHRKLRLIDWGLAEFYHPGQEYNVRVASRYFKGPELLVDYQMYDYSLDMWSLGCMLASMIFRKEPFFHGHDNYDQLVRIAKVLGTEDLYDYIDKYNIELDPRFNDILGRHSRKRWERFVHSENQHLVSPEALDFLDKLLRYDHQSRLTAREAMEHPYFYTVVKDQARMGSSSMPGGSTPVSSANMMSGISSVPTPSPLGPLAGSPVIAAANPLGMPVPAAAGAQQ
T1 sequence (P67870 whole entry partner): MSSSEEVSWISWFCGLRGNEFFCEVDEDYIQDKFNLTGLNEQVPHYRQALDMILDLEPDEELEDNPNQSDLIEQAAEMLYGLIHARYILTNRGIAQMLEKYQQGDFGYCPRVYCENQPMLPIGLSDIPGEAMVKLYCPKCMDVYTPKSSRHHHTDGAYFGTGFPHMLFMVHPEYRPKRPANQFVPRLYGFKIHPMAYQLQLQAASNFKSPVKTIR

IC50 [1]: 0.089 µM
Compound: O=C(O)c1ccn2c1nc(Nc1cccc(Cl)c1)c1ccncc12 [Compound 1, 5-((3-chlorophenyl)amino)pyrido[4,3-e]pyrrolo[1,2-a]pyrimidine-7-carboxylic acid]
IC50 (HL60 (leukemia)): 3.5 µM
IC50 (A375 (melanoma)): 4.6 µM
IC50 (MCF7 (breast)): 5.6 µM
IC50 (PC3 (prostate)): 2.4 µM
IC50 (MDA-MB-231 (breast)): 4.2 µM
IC50 (H1299 (lung)): 1.9 µM
IC50 (MIAPaCa-2 (pancreas)): 1.3 µM
IC50 (HCT116 (colon)): 2.1 µM

Reference: patent US12012406B1, “Pyrido[4,3-e]pyrrolo[1,2-a]pyrimidine as CK2 inhibitors” (KING FAISAL UNIVERSITY, priority 2024, dated 2024)
